From PMC9098913, “In vitro reconstitution of Escherichia coli divisome activation” (Nature Communications, 2022)
Where “and” joins values, the source holds several entries; their conditions need not be identical. Identical values can stand only once.

What was measured:
FtsA self-interaction = assay: FRET (acceptor photobleaching) self-interaction of FtsA on supported lipid bilayers; type: binding, E. coli
Text: To directly measure FtsA self-interaction in our fluorescence microscopy experiments, we established a FRET (Förster resonance energy transfer)-based assay using FtsA labelled with either Cy5 (acceptor) or Cy3 (donor). […] We then decided to use this approach to measure the degree of FtsA self-interaction on supported lipid membranes by quantifying the increase in donor fluorescence after photobleaching the acceptor fluorophore[30]–[32] (Fig. 3c–e and Fig. S3d). […] As a negative control, we also attached the Hexahistidine-SUMO-tag (His-SUMO) labelled with Cy5 and Cy3 to membranes with an increasing density of Tris-NTA lipids.
Equimolar concentrations of Cy3- and Cy5-labelled FtsA, supplemented with 20% unlabelled FtsA were used to study FRET and FRAP. Five pre-bleach frames were acquired, followed by acceptor photobleaching of a rectangular ROI with 40% 641 nm laser power and a dwell size of 1 µs/pixel, 75% overlapping lines. The recovery of the signal or the increase in donor intensity were measured with either two frames or one frame per second.
Bleaching the acceptor dye leads to an increase in the donor intensity, which can be used to quantify the Foerster Resonance energy transfer (FRET)[48]. FRET efficiency was quantified with E%=Ipost/Ipost+Ipre⋅100 , where Ipost is the intensity of the […] and Ipre is the […]. […] To extract the contribution of both processes, we adjusted a routine recently published by Gerganova et al.[33]. In short, the code provides the contribution of both modes of recovery by analysing the shape of the fluorescence recovery profile. […] Contribution of diffusion leads to a change of the slope of the outer borders of the bleached region (S4h right). Thus, by measuring the change of the slope of the border recovery, diffusion and simple on/off binding can be distinguished. We developed “FRAPdiff”, a graphical user interface, which uses the original fit routine by David Rutkowski. It can be used directly on.tiff movies with annotated bleach regions as ImageJ ROIs. In addition, we added optional bleach correction, user selectable projection axis (x or y), and optional mirroring of the recovery profiles, if bleaching was not symmetric. The original fit routine for estimating the recovery and diffusion dynamics can be found at https://github.com/davidmrutkowski/1DReflectingDiffusion. FRAPdiff is available at 10.5281/zenodo.6400639[49] under the GPLv3 open-source license.

[1] = Nucleotide effect on membrane binding of FtsA WT (normalized intensity); conditions: Fig. S3m

Q: What does the source list for “FtsA WT: wild-type E. coli actin-homologue FtsA, membrane anchor of FtsZ”?
A: FRET efficiency, mean (FtsA self-interaction; 0.1 µM FtsA + FtsN&Z): 15.28%; FRET efficiency, mean (FtsA self-interaction; 0.1 µM FtsA + FtsN): 8.5880% and 8.59%; FRET efficiency, mean (FtsA self-interaction; 0.1 µM FtsA + FtsZ): 7.8480% and 7.85%; FRET efficiency, mean (FtsA self-interaction; 0.1 µM FtsA alone): 8.1133%; FRET efficiency, mean (FtsA self-interaction; 0.2 µM FtsA + FtsN&Z): 17.79%; FRET efficiency, mean (FtsA self-interaction; 0.2 µM FtsA + FtsN): 12.6840% and 12.68%; FRET efficiency, mean (FtsA self-interaction; 0.2 µM FtsA + FtsZ): 12.5828% and 12.58%; FRET efficiency, mean (FtsA self-interaction; 0.2 µM FtsA alone): 16.69%; FRET efficiency, mean (FtsA self-interaction; 0.4 µM FtsA + FtsN&Z): 30.1680% and 30.17%; FRET efficiency, mean (FtsA self-interaction; 0.4 µM FtsA + FtsN): 27.2922% and 27.29%; FRET efficiency, mean (FtsA self-interaction; 0.4 µM FtsA + FtsZ): 17.7412% and 17.74%; FRET efficiency, mean (FtsA self-interaction; 0.4 µM FtsA alone): 22.27%; FRET efficiency (FtsA self-interaction; 0.4 µM FtsA with FtsNcyto and FtsZ, p-value 0.64): 30.2 ± 9.6%; FRET efficiency (FtsA self-interaction; 0.4 µM FtsA, p-value 6.12 × 10^−9): 22.1 ± 5.7%; FRET efficiency, mean (FtsA self-interaction; 0.8 µM FtsA + FtsN&Z): 34.2167% and 34.22%; FRET efficiency, mean (FtsA self-interaction; 0.8 µM FtsA + FtsN): 29.89%; FRET efficiency, mean (FtsA self-interaction; 0.8 µM FtsA + FtsZ): 27.1326% and 27.13%; FRET efficiency, mean (FtsA self-interaction; 0.8 µM FtsA alone): 31.17%; FRET efficiency (FtsA self-interaction; Fig. S3f, 0.2µM FtsA + N/Z, replicate 1): 17.94%; FRET efficiency (FtsA self-interaction; Fig. S3f, 0.2µM FtsA + N/Z, replicate 2): 16.55%; FRET efficiency (FtsA self-interaction; Fig. S3f, 0.2µM FtsA + N/Z, replicate 3): 18.88%; FRET efficiency (FtsA self-interaction; Fig. S3f, 0.2µM FtsA + N, replicate 1): 7.76%; FRET efficiency (FtsA self-interaction; Fig. S3f, 0.2µM FtsA + N, replicate 2): 9.38%; FRET efficiency (FtsA self-interaction; Fig. S3f, 0.2µM FtsA + N, replicate 3): 9.72%; FRET efficiency (FtsA self-interaction; Fig. S3f, 0.2µM FtsA + Z, replicate 1): 9.62%; FRET efficiency (FtsA self-interaction; Fig. S3f, 0.2µM FtsA + Z, replicate 2): 10.06%; FRET efficiency (FtsA self-interaction; Fig. S3f, 0.2µM FtsA + Z, replicate 3): 7.69%; FRET efficiency (FtsA self-interaction; Fig. S3f, 0.2µM FtsA, replicate 1): 12.55%; FRET efficiency (FtsA self-interaction; Fig. S3f, 0.2µM FtsA, replicate 2): 13.62%; FRET efficiency (FtsA self-interaction; Fig. S3f, 0.2µM FtsA, replicate 3): 23.13%; FRET efficiency (FtsA self-interaction; Fig. S3f, 0.4µM FtsA + N/Z, replicate 1): 16.64%; FRET efficiency (FtsA self-interaction; Fig. S3f, 0.4µM FtsA + N/Z, replicate 2): 39.69%; FRET efficiency (FtsA self-interaction; Fig. S3f, 0.4µM FtsA + N/Z, replicate 3): 38.87%; FRET efficiency (FtsA self-interaction; Fig. S3f, 0.4µM FtsA + N, replicate 1): 18.29%; FRET efficiency (FtsA self-interaction; Fig. S3f, 0.4µM FtsA + N, replicate 2): 25.77%; FRET efficiency (FtsA self-interaction; Fig. S3f, 0.4µM FtsA + N, replicate 3): 38.25%; FRET efficiency (FtsA self-interaction; Fig. S3f, 0.4µM FtsA + Z, replicate 1): 14.31%; FRET efficiency (FtsA self-interaction; Fig. S3f, 0.4µM FtsA + Z, replicate 2): 10.18%; FRET efficiency (FtsA self-interaction; Fig. S3f, 0.4µM FtsA + Z, replicate 3): 12.8%; FRET efficiency (FtsA self-interaction; Fig. S3f, 0.4µM FtsA, replicate 1): 20.04%; FRET efficiency (FtsA self-interaction; Fig. S3f, 0.4µM FtsA, replicate 2): 14.17%; FRET efficiency (FtsA self-interaction; Fig. S3f, 0.4µM FtsA, replicate 3): 22.75%; FRET efficiency (FtsA self-interaction; Fig. S3n, AMP PNP, 0.10 µM FtsA, replicate 1): 2.62%; FRET efficiency (FtsA self-interaction; Fig. S3n, AMP PNP, 0.10 µM FtsA, replicate 2): -0.01%; FRET efficiency (FtsA self-interaction; Fig. S3n, AMP PNP, 0.20 µM FtsA, replicate 1): 5.42%; FRET efficiency (FtsA self-interaction; Fig. S3n, AMP PNP, 0.20 µM FtsA, replicate 2): 10.85%; FRET efficiency (FtsA self-interaction; Fig. S3n, AMPPNP, 0.10 µM FtsA, summary value): 1.30%; FRET efficiency (FtsA self-interaction; Fig. S3n, AMPPNP, 0.20 µM FtsA, summary value): 8.14%; FRET efficiency (FtsA self-interaction; Fig. S3n, AMPPNP, 0.40 µM FtsA, summary value): 9.64%; FRET efficiency (FtsA self-interaction; Fig. S3n, AMPPNP, 0.80 µM FtsA, summary value): 10.07%; FRET efficiency (FtsA self-interaction; Fig. S3n, ATP, 0.10 µM FtsA, summary value): 8.36%; FRET efficiency (FtsA self-interaction; Fig. S3n, ATP, 0.20 µM FtsA, summary value): 16.69%; FRET efficiency (FtsA self-interaction; Fig. S3n, ATP, 0.40 µM FtsA, summary value): 22.27%; FRET efficiency (FtsA self-interaction; Fig. S3n, ATP, 0.80 µM FtsA, summary value): 31.17%; FRET efficiency (FtsA self-interaction; Fig. S3n, ATPgS, 0.10 µM FtsA, summary value): 4.97%; FRET efficiency (FtsA self-interaction; Fig. S3n, ATPgS, 0.20 µM FtsA, summary value): 9.83%; FRET efficiency (FtsA self-interaction; Fig. S3n, ATPgS, 0.40 µM FtsA, summary value): 14.66%; FRET efficiency (FtsA self-interaction; Fig. S3n, ATPgS, 0.80 µM FtsA, summary value): 21.79%; effect of FtsNcyto on FRET (FtsA self-interaction; presence of FtsNcyto): small FRET increase; Normalized intensity ([1]; AMP PNP, 0.10 µM FtsA, replicate 1): 0.07 a.u.; Normalized intensity ([1]; AMP PNP, 0.10 µM FtsA, replicate 2): 0.13 a.u.; Normalized intensity ([1]; AMPPNP, 0.20 µM FtsA, summary value): 0.62 a.u.; Normalized intensity ([1]; AMPPNP, 0.40 µM FtsA, summary value): 0.75 a.u.; Normalized intensity ([1]; AMPPNP, 0.80 µM FtsA, summary value): 1.00 a.u.; Normalized intensity ([1]; ATP, 0.10 µM FtsA, replicate 1): 0.20 a.u.; Normalized intensity ([1]; ATP, 0.10 µM FtsA, replicate 2): 0.48 a.u.; Normalized intensity ([1]; ATP, 0.10 µM FtsA, summary value): 0.37 a.u.; Normalized intensity ([1]; ATP, 0.20 µM FtsA, summary value): 0.67 a.u.; Normalized intensity ([1]; ATP, 0.40 µM FtsA, summary value): 0.82 a.u.; Normalized intensity ([1]; ATP, 0.80 µM FtsA, summary value): 0.95 a.u.; Normalized intensity ([1]; ATPgS, 0.20 µM FtsA, summary value): 0.20 a.u.; Normalized intensity ([1]; ATPgS, 0.40 µM FtsA, summary value): 0.21 a.u.; Normalized intensity ([1]; ATPgS, 0.80 µM FtsA, summary value): 0.65 a.u.
